{"source": "paper PMC5218480", "about": "(PLoS ONE, 2017)", "system": "MV-4-11 cells", "experiment": "Gene expression microarray analysis (Affymetrix PrimeView) and GSEA", "type": "cell-based, human", "set-up": "RFU PODN (11730768_x_at) / Fold change /veh PODN (11730768_x_at) / RFU LINC00158 (11744669_a_at) / Fold change /veh LINC00158 (11744669_a_at) / RFU DUSP10 (11751237_a_at) / Fold change /veh DUSP10 (11751237_a_at) / RFU ID3 (11757404_x_at) / Fold change /veh ID3 (11757404_x_at) / RFU PLEKHG5 (11737974_s_at) / Fold change /veh PLEKHG5 (11737974_s_at) / RFU LRRC4B (11730491_at) / Fold change /veh LRRC4B (11730491_at) / RFU GIMAP4 (11747438_a_at) / Fold change /veh GIMAP4 (11747438_a_at) / RFU KRT8 (11758183_x_at) / Fold change /veh KRT8 (11758183_x_at) / RFU CNN1 (11734310_a_at) / Fold change /veh CNN1 (11734310_a_at) / RFU VPS37D (11726825_at) / Fold change /veh VPS37D (11726825_at) / RFU C10orf10 (11716522_x_at) / Fold change /veh C10orf10 (11716522_x_at) / RFU KIR2DL2 /// KIR2DL4 /// KIR2DL5A /// KIR2DL5B /// KIR2DS1 /// KIR2DS2 /// KIR2DS3 /// KIR2DS4 /// KIR3DL3 /// KIR3DL3 /// KIR3DS1 (11738374_at) / Fold change /veh KIR2DL2 /// KIR2DL4 /// KIR2DL5A /// KIR2DL5B /// KIR2DS1 /// KIR2DS2 /// KIR2DS3 /// KIR2DS4 /// KIR3DL3 /// KIR3DL3 /// KIR3DS1 (11738374_at) / RFU C1QL1 (11718748_at) / Fold change /veh C1QL1 (11718748_at) / RFU TMPRSS4 (11747572_a_at) / Fold change /veh TMPRSS4 (11747572_a_at) / RFU HAMP (11756126_x_at) / Fold change /veh HAMP (11756126_x_at) / RFU RNFT2 (11725882_a_at) / Fold change /veh RNFT2 (11725882_a_at) / RFU NR4A2 (11747474_a_at) / Fold change /veh NR4A2 (11747474_a_at) / RFU ABCC12 (11746883_a_at) / Fold change /veh ABCC12 (11746883_a_at) / RFU TMEM136 (11760407_x_at) / Fold change /veh TMEM136 (11760407_x_at) / RFU CLDN22 /// WWC2 (11732394_at) / Fold change /veh CLDN22 /// WWC2 (11732394_at) / RFU HLA-DPB1 (11760878_x_at) / Fold change /veh HLA-DPB1 (11760878_x_at) / RFU SPINT1 (11716480_a_at) / Fold change /veh SPINT1 (11716480_a_at) / RFU GAP43 (11754022_s_at) / Fold change /veh GAP43 (11754022_s_at) / RFU A4GNT (11735810_at) / Fold change /veh A4GNT (11735810_at) / RFU PRB3 (11715151_x_at) / Fold change /veh PRB3 (11715151_x_at) / RFU TUBB4B (11761932_at) / Fold change /veh TUBB4B (11761932_at) / RFU CAPN14 (11732068_a_at) / Fold change /veh CAPN14 (11732068_a_at) / RFU TMCC2 (11721928_a_at) / Fold change /veh TMCC2 (11721928_a_at) / RFU IRGQ (11745062_a_at) / Fold change /veh IRGQ (11745062_a_at) / RFU FAM174B (11720279_a_at) / Fold change /veh FAM174B (11720279_a_at) / RFU TMPRSS4 (11748680_a_at) / Fold change /veh TMPRSS4 (11748680_a_at) / RFU FAM212B (11763350_a_at) / Fold change /veh FAM212B (11763350_a_at) / RFU PLEKHG5 (11743358_a_at) / Fold change /veh PLEKHG5 (11743358_a_at) / RFU ZSCAN30 (11745921_a_at) / Fold change /veh ZSCAN30 (11745921_a_at) / RFU CMKLR1 (11741424_a_at) / Fold change /veh CMKLR1 (11741424_a_at) / RFU LOC101060620 /// MAPK8IP1 (11723275_at) / Fold change /veh LOC101060620 /// MAPK8IP1 (11723275_at) / RFU SPTSSB (11747773_x_at) / Fold change /veh SPTSSB (11747773_x_at) / RFU PRSS12 (11739890_at) / Fold change /veh PRSS12 (11739890_at) / RFU BIN1 (11741810_x_at) / Fold change /veh BIN1 (11741810_x_at) / RFU WNT11 (11732464_a_at) / Fold change /veh WNT11 (11732464_a_at) / RFU C10orf10 (11716521_a_at) / Fold change /veh C10orf10 (11716521_a_at) / RFU C5orf56 (11738089_at) / Fold change /veh C5orf56 (11738089_at) / RFU CYB561 (11721691_x_at) / Fold change /veh CYB561 (11721691_x_at) / RFU ANKRD19P (11752326_a_at) / Fold change /veh ANKRD19P (11752326_a_at) / RFU OR2T12 /// OR2T33 /// OR2T8 (11738714_s_at) / Fold change /veh OR2T12 /// OR2T33 /// OR2T8 (11738714_s_at) / RFU VCAN (11748164_a_at) / Fold change /veh VCAN (11748164_a_at) / RFU JSRP1 (11732532_at) / Fold change /veh JSRP1 (11732532_at) / RFU KRTAP10-11 (11738290_x_at) / Fold change /veh KRTAP10-11 (11738290_x_at) / RFU MYO3A (11730013_a_at) / Fold change /veh MYO3A (11730013_a_at) / RFU EBF3 (11725865_a_at) / Fold change /veh EBF3 (11725865_a_at) / RFU CAMK2N1 (11719241_x_at) / Fold change /veh CAMK2N1 (11719241_x_at) / RFU C5orf56 (11738088_a_at) / Fold change /veh C5orf56 (11738088_a_at) / RFU OLFML3 (11715873_a_at) / Fold change /veh OLFML3 (11715873_a_at) / RFU LOC100653217 /// NTM (11731650_a_at) / Fold change /veh LOC100653217 /// NTM (11731650_a_at) / RFU MAPK11 (11762145_a_at) / Fold change /veh MAPK11 (11762145_a_at) / RFU FIZ1 (11724087_x_at) / Fold change /veh FIZ1 (11724087_x_at) / RFU OASL (11726364_x_at) / Fold change /veh OASL (11726364_x_at) / RFU SOX15 (11748057_x_at) / Fold change /veh SOX15 (11748057_x_at) / RFU CD79A (11719716_a_at) / Fold change /veh CD79A (11719716_a_at) / RFU HIST1H1D (11736915_at) / Fold change /veh HIST1H1D (11736915_at) / RFU CASKIN2 (11723855_a_at) / Fold change /veh CASKIN2 (11723855_a_at) / RFU LOC730098 (11760151_x_at) / Fold change /veh LOC730098 (11760151_x_at) / RFU OR4N2 (11742367_at) / Fold change /veh OR4N2 (11742367_at) / RFU PRRT2 (11749266_a_at) / Fold change /veh PRRT2 (11749266_a_at) / RFU SNX32 (11753110_a_at) / Fold change /veh SNX32 (11753110_a_at) / RFU CDHR5 (11726645_a_at) / Fold change /veh CDHR5 (11726645_a_at) / RFU RCAN1 (11760418_a_at) / Fold change /veh RCAN1 (11760418_a_at) / RFU FAM167A (11723789_a_at) / Fold change /veh FAM167A (11723789_a_at) / RFU FAM26E (11764081_at) / Fold change /veh FAM26E (11764081_at) / RFU ISYNA1 (11749810_s_at) / Fold change /veh ISYNA1 (11749810_s_at) / RFU ACY1 (11761880_at) / Fold change /veh ACY1 (11761880_at) / RFU 11764098_at / Fold change /veh 11764098_at / RFU SAMD14 (11745864_x_at) / Fold change /veh SAMD14 (11745864_x_at) / RFU NPB (11741838_a_at) / Fold change /veh NPB (11741838_a_at) / RFU TMPRSS6 (11731388_a_at) / Fold change /veh TMPRSS6 (11731388_a_at) / RFU KRTAP10-2 (11738614_at) / Fold change /veh KRTAP10-2 (11738614_at) / RFU ARHGAP8 /// PRR5-ARHGAP8 (11727945_x_at) / Fold change /veh ARHGAP8 /// PRR5-ARHGAP8 (11727945_x_at) / RFU KRTAP5-7 /// NADSYN1 (11734609_at) / Fold change /veh KRTAP5-7 /// NADSYN1 (11734609_at) / RFU RASL12 (11751679_a_at) / Fold change /veh RASL12 (11751679_a_at) / RFU CDKN2B (11736163_a_at) / Fold change /veh CDKN2B (11736163_a_at) / RFU PRF1 (11729649_at) / Fold change /veh PRF1 (11729649_at) / RFU, ZNF638 /// ZNF638-IT1 / Fold change vs veh, ZNF638 /// ZNF638-IT1 / RFU, PANK3 / Fold change vs veh, PANK3 / RFU, SH3YL1 / Fold change vs veh, SH3YL1 / RFU, ZEB2 / Fold change vs veh, ZEB2 / RFU, NRIP1 / Fold change vs veh, NRIP1 / RFU, PTTG1IP / Fold change vs veh, PTTG1IP / RFU, CAPN2 / Fold change vs veh, CAPN2 / RFU, MED14 / Fold change vs veh, MED14 / RFU, SNORA58 / Fold change vs veh, SNORA58 / RFU, C1orf63 / Fold change vs veh, C1orf63 / RFU, LRRFIP1 / Fold change vs veh, LRRFIP1 / RFU, NDUFAF7 / Fold change vs veh, NDUFAF7 / RFU, SLC12A2 / Fold change vs veh, SLC12A2 / RFU, IBTK / Fold change vs veh, IBTK / RFU, ESF1 / Fold change vs veh, ESF1 / Fold change vs veh, TMEM50B / RFU, TAOK1 / Fold change vs veh, TAOK1 / RFU, ACBD3 / Fold change vs veh, ACBD3 / RFU, TMA16 / Fold change vs veh, TMA16 / RFU, RWDD3 / Fold change vs veh, RWDD3 / RFU, BCAT1 / Fold change vs veh, BCAT1 / RFU, EDEM3 / Fold change vs veh, EDEM3 / RFU, TMEM33 / Fold change vs veh, TMEM33 / RFU, WDR75 / Fold change vs veh, WDR75 / RFU, AHCTF1 / Fold change vs veh, AHCTF1 / RFU, TFRC / Fold change vs veh, TFRC / RFU, ZDHHC17 / Fold change vs veh, ZDHHC17 / RFU, NOM1 / Fold change vs veh, NOM1 / RFU, ARL8B / Fold change vs veh, ARL8B / RFU, ZBTB11 / Fold change vs veh, ZBTB11 / RFU, TAMM41 / Fold change vs veh, TAMM41 / RFU, KIAA1704 /// LOC100996395 / Fold change vs veh, KIAA1704 /// LOC100996395 / RFU, ING1 / Fold change vs veh, ING1 / RFU, TRMT61B / Fold change vs veh, TRMT61B / RFU, FUBP3 / Fold change vs veh, FUBP3 / RFU, TP53 / Fold change vs veh, TP53 / RFU, TNKS2 / Fold change vs veh, TNKS2 / RFU, ZFP14 / Fold change vs veh, ZFP14 / RFU, ACTR2 / Fold change vs veh, ACTR2 / RFU, PPP3R1 / Fold change vs veh, PPP3R1 / RFU, PIK3R1 / Fold change vs veh, PIK3R1 / RFU, HNRNPA1 / Fold change vs veh, HNRNPA1 / RFU, RNF170 / Fold change vs veh, RNF170 / RFU, ZNF28 / Fold change vs veh, ZNF28 / RFU, RNGTT / Fold change vs veh, RNGTT / RFU, OGT / Fold change vs veh, OGT / RFU, BRD1 / Fold change vs veh, BRD1 / RFU, MARS / Fold change vs veh, MARS / RFU, ZNF655 / Fold change vs veh, ZNF655 / RFU, FAHD1 / Fold change vs veh, FAHD1 / RFU, BDP1 / Fold change vs veh, BDP1 / RFU, LRRCC1 / Fold change vs veh, LRRCC1 / RFU, ARID1A / Fold change vs veh, ARID1A / RFU, ZNF146 / Fold change vs veh, ZNF146 / RFU, ZNF330 / Fold change vs veh, ZNF330 / RFU, GPN3 / Fold change vs veh, GPN3 / RFU, C9orf123 / Fold change vs veh, C9orf123 / RFU, N4BP2L2 / Fold change vs veh, N4BP2L2 / RFU, ARFIP1 / Fold change vs veh, ARFIP1 / RFU, FAM179B / Fold change vs veh, FAM179B / RFU, BCL10 / Fold change vs veh, BCL10 / RFU, UHRF1BP1L / Fold change vs veh, UHRF1BP1L / RFU, BET1 / Fold change vs veh, BET1 / RFU, CNOT2 / Fold change vs veh, CNOT2 / RFU, ZNF268 / Fold change vs veh, ZNF268 / Fold change vs veh, ZNF507 / RFU, DGCR2 / Fold change vs veh, DGCR2 / RFU, WDSUB1 / Fold change vs veh, WDSUB1 / Fold change vs veh, HSP90B1 /// MIR3652 / RFU, ADSS / Fold change vs veh, ADSS / RFU, GK / Fold change vs veh, GK / RFU, ZNF148 / Fold change vs veh, ZNF148 / RFU, TAF9 / Fold change vs veh, TAF9 / RFU, SLC1A5 / Fold change vs veh, SLC1A5 / RFU, SLMO2 / Fold change vs veh, SLMO2 / RFU, ABCC4 / Fold change vs veh, ABCC4 / RFU, LOC101060439 /// RAP1B / Fold change vs veh, LOC101060439 /// RAP1B / RFU, RFX7 / Fold change vs veh, RFX7 / RFU, GTPBP10 / Fold change vs veh, GTPBP10 / RFU, CNEP1R1 / Fold change vs veh, CNEP1R1 / RFU, BIVM-ERCC5 /// ERCC5 / Fold change vs veh, BIVM-ERCC5 /// ERCC5 / RFU, ILF3 / Fold change vs veh, ILF3 / RFU 11762660_at / Fold change /veh 11762660_at / RFU VCAN (11757783_s_at) / Fold change /veh VCAN (11757783_s_at) / RFU DDX43 (11728927_at) / Fold change /veh DDX43 (11728927_at) / RFU KRT8 (11758188_x_at) / Fold change /veh KRT8 (11758188_x_at) / RFU NKD1 (11759106_at) / Fold change /veh NKD1 (11759106_at) / RFU SRD5A1 (11742802_a_at) / Fold change /veh SRD5A1 (11742802_a_at) / RFU TPSAB1 /// TPSB2 (11721975_s_at) / Fold change /veh TPSAB1 /// TPSB2 (11721975_s_at) / RFU GSTM3 (11746129_a_at) / Fold change /veh GSTM3 (11746129_a_at) / RFU IL23R (11737362_x_at) / Fold change /veh IL23R (11737362_x_at) / RFU TMEM51 (11727254_a_at) / Fold change /veh TMEM51 (11727254_a_at) / RFU PIWIL2 (11732686_x_at) / Fold change /veh PIWIL2 (11732686_x_at) / RFU ORM1 (11744905_x_at) / Fold change /veh ORM1 (11744905_x_at) / RFU CCDC152 (11743942_at) / Fold change /veh CCDC152 (11743942_at) / RFU ECM1 (11717891_a_at) / Fold change /veh ECM1 (11717891_a_at) / RFU IL23R (11748794_a_at) / Fold change /veh IL23R (11748794_a_at) / RFU TNFAIP8L3 (11732012_x_at) / Fold change /veh TNFAIP8L3 (11732012_x_at) / RFU MBOAT4 (11741988_at) / Fold change /veh MBOAT4 (11741988_at) / RFU 11764193_at / Fold change /veh 11764193_at / RFU TMEM53 (11763286_at) / Fold change /veh TMEM53 (11763286_at) / RFU MAGEB2 (11727129_at) / Fold change /veh MAGEB2 (11727129_at) / RFU TMEM200A (11744735_a_at) / Fold change /veh TMEM200A (11744735_a_at) / RFU CCDC152 (11751479_a_at) / Fold change /veh CCDC152 (11751479_a_at) / RFU FAM211A (11726209_a_at) / Fold change /veh FAM211A (11726209_a_at) / RFU RGS16 (11746705_a_at) / Fold change /veh RGS16 (11746705_a_at) / RFU VCAN (11755009_s_at) / Fold change /veh VCAN (11755009_s_at) / RFU RHOB (11743442_s_at) / Fold change /veh RHOB (11743442_s_at) / RFU RGS16 (11720943_a_at) / Fold change /veh RGS16 (11720943_a_at) / RFU RGS16 (11720944_at) / Fold change /veh RGS16 (11720944_at) / RFU, VPS4B / Fold change vs veh, VPS4B / RFU, CREB1 / Fold change vs veh, CREB1 / RFU, DNAJC13 / Fold change vs veh, DNAJC13 / RFU, GNAQ / Fold change vs veh, GNAQ / RFU, CDK5R1 / Fold change vs veh, CDK5R1 / RFU, ZRANB3 / Fold change vs veh, ZRANB3 / RFU, CUL4A / Fold change vs veh, CUL4A / RFU, CCNY / Fold change vs veh, CCNY / RFU, UFL1 / Fold change vs veh, UFL1 / RFU, COG3 / Fold change vs veh, COG3 / RFU, DIAPH2 / Fold change vs veh, DIAPH2 / RFU, SKA2 / Fold change vs veh, SKA2 / RFU, AFF3 / Fold change vs veh, AFF3 / RFU, LMF1 / Fold change vs veh, LMF1 / RFU, IPO11 / Fold change vs veh, IPO11 / RFU, DFFB / Fold change vs veh, DFFB / RFU, FOXP1 / Fold change vs veh, FOXP1 / RFU, CARD8 / Fold change vs veh, CARD8 / RFU, STRN3 / Fold change vs veh, STRN3 / RFU, ADK / Fold change vs veh, ADK / RFU, RASSF2 / Fold change vs veh, RASSF2 / RFU, WIPF1 / Fold change vs veh, WIPF1 / RFU, LARP1B / Fold change vs veh, LARP1B / RFU, RASA1 / Fold change vs veh, RASA1 / RFU, RB1 / Fold change vs veh, RB1 / RFU, PPFIA1 / Fold change vs veh, PPFIA1 / RFU, MAT2A / Fold change vs veh, MAT2A / RFU, CCT5 / Fold change vs veh, CCT5 / RFU, WDR92 / Fold change vs veh, WDR92 / RFU, CUX1 / Fold change vs veh, CUX1 / RFU, TTC7A / Fold change vs veh, TTC7A / RFU, TMEM135 / Fold change vs veh, TMEM135 / RFU, DEPTOR / Fold change vs veh, DEPTOR / RFU, CPM / Fold change vs veh, CPM / RFU, DNAJB6 / Fold change vs veh, DNAJB6 / RFU, CACNA2D3 / Fold change vs veh, CACNA2D3 / RFU, DTX4 / Fold change vs veh, DTX4 / RFU, TFCP2 / Fold change vs veh, TFCP2 / RFU, GMCL1 /// GMCL1P1 / Fold change vs veh, GMCL1 /// GMCL1P1 / RFU, AEBP2 / Fold change vs veh, AEBP2 / RFU, SNHG1 /// SNORD22 /// SNORD25 /// SNORD26 /// SNORD27 /// SNORD28 /// SNORD29 /// SNORD31 / Fold change vs veh, SNHG1 /// SNORD22 /// SNORD25 /// SNORD26 /// SNORD27 /// SNORD28 /// SNORD29 /// SNORD31 / Fold change (Aza/veh), C12orf56 (ProbeSet 11735607_a_at) / Fold change (ACY-1035/veh), C12orf56 (ProbeSet 11735607_a_at) / Fold change (Aza/veh), FGFR1OP (ProbeSet 11751329_s_at) / Fold change (ACY-1035/veh), FGFR1OP (ProbeSet 11751329_s_at) / Fold change (Aza/veh), VPS36 (ProbeSet 11739960_a_at) / Fold change (ACY-1035/veh), VPS36 (ProbeSet 11739960_a_at) / RFU SYPL1 (11715823_x_at) / Fold change /veh SYPL1 (11715823_x_at) / RFU IGFBP7 (11715501_s_at) / Fold change /veh IGFBP7 (11715501_s_at) / RFU REEP3 (11722064_at) / Fold change /veh REEP3 (11722064_at) / RFU IGLL1 (11728026_x_at) / Fold change /veh IGLL1 (11728026_x_at): dose or concentration left out as unconfirmed", "details": "MV-4-11 cells, 48 hours", "data": [{"molecule": "Nc1ncn([C@@H]2O[C@H](CO)[C@@H](O)[C@H]2O)c(=O)n1", "note": "[azacitidine]", "values": [{"measurement": "Fold change /veh TMEM136 (11760407_x_at)", "result": 1.19}]}]}
